According to ChEMBL document CHEMBL3044898, “Alkoxyphenyl methanesulfonamides: synthesis, anti-inflammatory effect, and docking studies” (Med Chem Res, 2012):

Assays:
[1] = system: Rattus norvegicus; experiment: Anti-inflammatory activity in Rattus norvegicus Wistar (rat) assessed as inhibition of carrageenan-induced paw edema at 5 mg/kg, po administered 30 min post carrageenan challenge measured at 5 hr relative to control; assay type: functional
[2] = system: Rattus norvegicus; experiment: Ulcerogenic activity in Rattus norvegicus Wistar (rat) assessed as length of lesion at 75 mg/kg, po after 6 hr (reference value: 0 mm); assay type: toxicity, organism-based; set-up: dose 75 mg/kg, route oral; conditions: in vivo
[3] = system: Rattus norvegicus; experiment: Ulcerogenic activity in Rattus norvegicus Wistar (rat) assessed as length of lesion at 25 mg/kg, po after 6 hr (reference value: 0 mm); assay type: toxicity, organism-based; set-up: dose 25 mg/kg, route oral; conditions: in vivo
[4] = system: Rattus norvegicus; experiment: Ulcerogenic activity in Rattus norvegicus Wistar (rat) assessed as length of lesion at 5 mg/kg, po after 6 hr (reference value: 0 mm); assay type: toxicity, organism-based; set-up: dose 5 mg/kg, route oral; conditions: in vivo
[5] = system: Rattus norvegicus; experiment: Anti-inflammatory activity in Rattus norvegicus Wistar (rat) assessed as inhibition of carrageenan-induced paw edema at 75 mg/kg, po administered 30 min post carrageenan challenge measured at 5 hr relative to control; assay type: functional
[6] = system: Rattus norvegicus; experiment: Anti-inflammatory activity in po dosed Rattus norvegicus Wistar (rat) assessed as inhibition of carrageenan-induced paw edema administered 30 min post carrageenan challenge measured at 5 hr; assay type: functional
[7] = system: Rattus norvegicus; experiment: Anti-inflammatory activity in Rattus norvegicus Wistar (rat) assessed as inhibition of carrageenan-induced paw edema at 25 mg/kg, po administered 30 min post carrageenan challenge measured at 5 hr relative to control; assay type: functional
[8] = system: Rattus norvegicus; experiment: Ulcerogenic activity in Rattus norvegicus Wistar (rat) assessed as length of lesion at 10 mg/kg, po after 6 hr (reference value: 0 mm); assay type: toxicity, organism-based; set-up: dose 10 mg/kg, route oral; conditions: in vivo
[9] = system: Rattus norvegicus; experiment: Anti-inflammatory activity in Rattus norvegicus Wistar (rat) assessed as inhibition of carrageenan-induced paw edema at 100 mg/kg, po administered 30 min post carrageenan challenge measured at 5 hr relative to control; assay type: functional
[10] = system: Rattus norvegicus; experiment: Ulcerogenic activity in Rattus norvegicus Wistar (rat) assessed as length of lesion at 100 mg/kg, po after 6 hr (reference value: 0 mm); assay type: toxicity, organism-based; set-up: dose 100 mg/kg, route oral; conditions: in vivo
[11] = system: Rattus norvegicus; experiment: Ulcerogenic activity in Rattus norvegicus Wistar (rat) assessed as length of lesion at 30 mg/kg, po after 6 hr (reference value: 0 mm); assay type: toxicity, organism-based; set-up: dose 30 mg/kg, route oral; conditions: in vivo
[12] = system: Rattus norvegicus; experiment: Anti-inflammatory activity in Rattus norvegicus Wistar (rat) assessed as inhibition of carrageenan-induced paw edema at 30 mg/kg, po administered 30 min post carrageenan challenge measured at 5 hr relative to control; assay type: functional

Structure (SMILES)	inhibition in vivo at 5 mg/kg [1]	Activity [2]	Activity [3]	Activity [4]	inhibition in vivo at 75 mg/kg [5]	ED50 [6]	inhibition in vivo at 25 mg/kg [7]	Activity [8]	inhibition in vivo at 100 mg/kg [9]	Activity [10]	Activity [11]	inhibition in vivo at 30 mg/kg [12]
CCCCCCCCOc1cc(C(C)=O)ccc1NS(C)(=O)=O	51.5%	2 mm	1 mm	0 mm	69.9%	2.36 mg/kg	62.5%	–	–	–	–	–
CCCOc1cc(C(C)=O)ccc1NS(C)(=O)=O	56.6%	1 mm	1 mm	0 mm	67.2%	2.25 mg/kg	62.1%	–	–	–	–	–
COc1ccc2c(c1)c(CC(=O)O)c(C)n2C(=O)c1ccc(Cl)cc1 [INDOMETHACIN]	–	–	–	–	–	2.2 mg/kg	–	19.4 mm	–	–	–	–
CC(=O)c1ccc(NS(C)(=O)=O)c(O)c1	–	–	–	–	–	–	–	–	15.9%	1 mm	–	–
CS(=O)(=O)c1ccc(C2=C(c3ccccc3)C(=O)OC2)cc1 [ROFECOXIB]	–	–	–	–	–	2.61 mg/kg	–	–	–	–	2 mm	82.8%
CC(=O)c1ccc(NS(C)(=O)=O)c(OC2CCCC2)c1	58.7%	1 mm	0 mm	0 mm	69.2%	2.31 mg/kg	57.4%	–	–	–	–	–
CCOc1cc(C(C)=O)ccc1NS(C)(=O)=O	44%	1 mm	0 mm	0 mm	66.2%	1.8 mg/kg	54.6%	–	–	–	–	–
